In ChEMBL document CHEMBL6114960, “Discovery of First-in-Class FXR and HSD17B13 Dual Modulator for the Treatment of Metabolic Dysfunction-Associated Fatty Liver Disease” (J Med Chem, 2025) one finds EC50 and IC50 data, which are given here for one molecule.

Test [1] addresses T1, G-protein coupled bile acid receptor 1 (Homo sapiens, UniProt Q8TDU6).
T1 sequence (Q8TDU6 whole entry): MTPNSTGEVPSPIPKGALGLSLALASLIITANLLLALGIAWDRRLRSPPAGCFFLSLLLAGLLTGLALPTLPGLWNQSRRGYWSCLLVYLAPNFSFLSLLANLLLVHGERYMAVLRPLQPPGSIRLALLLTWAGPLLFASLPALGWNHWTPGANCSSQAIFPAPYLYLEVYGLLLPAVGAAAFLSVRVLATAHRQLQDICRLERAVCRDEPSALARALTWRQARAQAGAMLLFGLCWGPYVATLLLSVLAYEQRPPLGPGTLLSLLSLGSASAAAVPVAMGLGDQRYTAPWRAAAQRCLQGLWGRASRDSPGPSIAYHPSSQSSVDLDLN
The test is described as follows: Agonist activity at TGR5 in human NCI-H716 cells assessed as increase in intracellular cAMP level preincubated with compound for 60 mins followed by IBMX addition and measured after 24 hrs by HTR-FRET assay. It is filed as functional, cell-based.

The target in test [2] is T2, Retinoic acid receptor gamma (Homo sapiens, UniProt P13631).
T2 sequence (P13631 whole entry): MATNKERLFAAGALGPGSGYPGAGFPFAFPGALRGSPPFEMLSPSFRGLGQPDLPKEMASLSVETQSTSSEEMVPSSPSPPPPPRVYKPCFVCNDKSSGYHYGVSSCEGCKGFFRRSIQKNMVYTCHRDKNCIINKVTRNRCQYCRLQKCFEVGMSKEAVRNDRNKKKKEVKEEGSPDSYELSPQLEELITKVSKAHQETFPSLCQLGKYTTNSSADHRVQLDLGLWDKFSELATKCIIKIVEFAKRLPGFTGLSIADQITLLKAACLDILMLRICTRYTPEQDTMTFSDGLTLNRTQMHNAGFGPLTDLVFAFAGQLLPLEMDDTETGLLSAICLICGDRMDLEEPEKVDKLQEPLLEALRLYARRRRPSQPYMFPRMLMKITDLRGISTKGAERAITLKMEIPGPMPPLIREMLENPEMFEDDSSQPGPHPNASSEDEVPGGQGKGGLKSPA
Briefly: Agonist activity at RARgamma (unknown origin) transfected in green monkey CV-1 cells co-transfected with NHR responsive luciferase reporter incubated for 18 hrs by luciferase assay. It is filed as cell-based. For orientation: In a reporter assay the amount or activity of a reporter protein is the signal.

The target in test [3] is T3, Bile acid receptor (Homo sapiens, UniProt Q96RI1).
T3 sequence (Q96RI1 whole entry): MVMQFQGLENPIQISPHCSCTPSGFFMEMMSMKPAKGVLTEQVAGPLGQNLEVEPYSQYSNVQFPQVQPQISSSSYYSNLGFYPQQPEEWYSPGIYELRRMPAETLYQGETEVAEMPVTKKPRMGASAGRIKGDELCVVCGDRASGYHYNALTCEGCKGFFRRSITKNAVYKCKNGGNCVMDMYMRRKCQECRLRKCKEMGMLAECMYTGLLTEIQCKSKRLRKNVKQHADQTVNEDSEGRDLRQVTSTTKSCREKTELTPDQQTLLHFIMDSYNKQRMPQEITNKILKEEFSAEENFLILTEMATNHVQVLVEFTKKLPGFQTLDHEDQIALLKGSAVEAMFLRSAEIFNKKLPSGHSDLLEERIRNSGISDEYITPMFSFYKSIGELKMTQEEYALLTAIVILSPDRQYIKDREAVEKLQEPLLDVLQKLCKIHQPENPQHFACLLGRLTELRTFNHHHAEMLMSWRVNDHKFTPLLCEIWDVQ
Briefly: Agonist activity at FXR-LBD (unknown origin) incubated for 3 hrs in presence of fluorescein-coactivator peptide by TR-FRET analysis. On the technique in general: TR-FRET usually uses a lanthanide donor and a delayed reading to cut background.

The target of test [4] is T4, Mineralocorticoid receptor (Homo sapiens, UniProt P08235).
T4 sequence (P08235 whole entry): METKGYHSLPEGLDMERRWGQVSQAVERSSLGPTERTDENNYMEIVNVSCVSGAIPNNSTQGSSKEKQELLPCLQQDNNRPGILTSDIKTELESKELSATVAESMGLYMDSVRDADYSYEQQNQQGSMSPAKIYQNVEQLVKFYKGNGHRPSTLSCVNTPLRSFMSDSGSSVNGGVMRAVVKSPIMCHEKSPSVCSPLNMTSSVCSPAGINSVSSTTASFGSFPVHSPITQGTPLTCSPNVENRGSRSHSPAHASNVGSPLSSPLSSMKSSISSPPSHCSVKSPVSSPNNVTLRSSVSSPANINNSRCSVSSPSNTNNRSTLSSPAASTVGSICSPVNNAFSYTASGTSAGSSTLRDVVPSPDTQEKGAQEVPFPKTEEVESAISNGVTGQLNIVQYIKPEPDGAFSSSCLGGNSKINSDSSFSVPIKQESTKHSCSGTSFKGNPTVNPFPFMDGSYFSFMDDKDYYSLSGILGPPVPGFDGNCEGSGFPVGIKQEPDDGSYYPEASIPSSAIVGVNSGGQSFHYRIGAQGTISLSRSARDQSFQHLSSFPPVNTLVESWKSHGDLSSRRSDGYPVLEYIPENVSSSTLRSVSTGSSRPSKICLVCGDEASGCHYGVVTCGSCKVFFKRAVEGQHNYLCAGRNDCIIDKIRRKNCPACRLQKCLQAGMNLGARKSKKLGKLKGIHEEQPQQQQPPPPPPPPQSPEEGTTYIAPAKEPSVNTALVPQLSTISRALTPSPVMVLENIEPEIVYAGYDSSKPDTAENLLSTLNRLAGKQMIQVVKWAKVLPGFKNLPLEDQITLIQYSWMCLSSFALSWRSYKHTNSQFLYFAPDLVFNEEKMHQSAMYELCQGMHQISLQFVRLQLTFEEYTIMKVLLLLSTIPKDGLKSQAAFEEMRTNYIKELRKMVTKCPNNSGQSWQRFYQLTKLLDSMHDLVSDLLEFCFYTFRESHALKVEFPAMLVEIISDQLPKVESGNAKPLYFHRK
Briefly: Agonist activity at mineralocorticoid receptor (unknown origin) transfected in green monkey CV-1 cells co-transfected with NHR responsive luciferase reporter incubated for 18 hrs by luciferase assay. Format: cell-based.

The target in test [5] is T5, Fatty acid-binding protein, liver (Homo sapiens, UniProt P07148).
T5 sequence (P07148 whole entry): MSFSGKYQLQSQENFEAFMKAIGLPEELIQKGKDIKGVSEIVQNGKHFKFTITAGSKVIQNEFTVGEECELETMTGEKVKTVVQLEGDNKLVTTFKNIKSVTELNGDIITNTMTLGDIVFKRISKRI
Briefly: Inhibition of FABP1 (unknown origin).

As a reminder, the EC50 is the concentration giving half of the maximal effect. What is called IC50 is the concentration that inhibits the measured activity by half. For `O=C(O)c1ccc(-c2ccc(OCc3c(-c4c(Cl)cccc4Cl)noc3C3CC3)cc2)cc1`, the EC50 is > 10 µM in test [1], > 10 µM in test [2], 0.052 µM in test [3] and > 10 µM in test [4]. The molecule also registered an IC50 in test [5] of 8.5 µM.
